The assay concerns C57BL/6J mice (AHR^b). Kind of assay: In vivo hepatic microsomal EROD activity, C57BL/6J. Also noted: species or system mouse. As to conditions: oral 30, 80 or 120 mg/kg, 48 hours. On the procedure:
We utilized the wild type rat hepatoma cell line, 5L, which harbors the high affinity AHR isoform, and our newly created AHR^d-15 cell line. […] Groups of control mice were given corn oil alone or BNF at the concentration of 120 mg/kg.
Figure 3 In Vitro dose response curves. A. Rat hepatoma cell lines bearing the murine AHR^d (AHR^d-15) or the rat AHR^b (5L) were incubated with increasing doses of TCDD in 96-well plates. After 40 hours, EROD activity was performed from whole cell lysate. (n = 3). […] (n = 3). C. Same assay as in A, with increasing doses of BNF. (n = 2). […] Following 48 hours, hepatic microsomal proteins were isolated and used for the assessment of EROD activity. Animals were treated in groups of 4. Error bars: S.D.
Hepatic microsomes were prepared by homogenizing 0.5 g of liver tissue in 5 mL of MENG buffer (25 mM buffer sodium morpholinopropane sulfonate buffer (pH 7.5) containing 0.025% (w/v) NaN3, 1 mM EGTA and 10% (v/v) glycerol). The homogenate was subjected to centrifugation at 10,000×g for 20 minutes, followed by centrifugation of the supernatant for 1 hour at 100,000×g and 4°C. The pellet was dissolved in 15 mM Tris-HCl buffer containing 250 mM sucrose (pH 8.0) and aliquots were stored at −80°C. Protein concentration was determined using the Bicinchoninic Acid Protein Assay Reagent (Pierce Biotechnology, Rockford, IL). […]

`Cc1cc(C)c(C=C2C(=O)Nc3ccccc32)[nH]1` [SU5416, 3-(3,5-dimethyl-1H-pyrrol-2-ylmethylene)-1,3-dihydro-indole-2-one]: the “hepatic EROD activity” value is listed as “dose-dependent increase”.
